Consider 61 compounds from ChEMBL document CHEMBL4196086, “Recent advances of imidazole-containing derivatives as anti-tubercular agents” (Eur J Med Chem, 2018).

The subject of series [1] is Mycobacterium tuberculosis. As to the kind of experiment: Antimycobacterial activity against Mycobacterium tuberculosis H37Rv. Particulars: Mycobacterium tuberculosis, H37Rv. In kind it is functional.
Series [2] can be described thus: Inhibition of Mycobacterium tuberculosis IMPDH.
Series [3] has as its system Mycobacterium tuberculosis. In words: Antimycobacterial activity against non-replicating Mycobacterium tuberculosis. The series is classed as functional.
In series [4] the test system is Mycobacterium tuberculosis. In words: Antimycobacterial activity against Mycobacterium tuberculosis H37Rv in logarithmic phase. The series is classed as functional.
Series [5] has as its system Mycobacterium tuberculosis. As to the kind of experiment: Antimycobacterial activity against Mycobacterium tuberculosis H37Rv in hypoxia-induced latent phase. The series is classed as functional.
For series [6], the system named is Mycobacterium tuberculosis. In words: Growth inhibition of Mycobacterium tuberculosis H37Rv at 100 ug/ml relative to control. Particulars: read-out: GI. In kind it is functional.
The test system of series [7] is Mycobacterium tuberculosis. As to the kind of experiment: Antimycobacterial activity against Mycobacterium tuberculosis H37Rv ATCC 27294 by MABA. In kind it is functional. On the technique in general: Alamar Blue is a resazurin reagent that responds to reducing activity.
A short description of series [8]: Selectivity index, ratio of IC50 for African green monkey Vero cells to MIC for Mycobacterium tuberculosis H37Rv ATCC 27294. The series is classed as toxicity. The settings on record: read-out: Selectivity Index.
Series [9] concerns Mycobacterium tuberculosis. As to the kind of experiment: Antimycobacterial activity against Mycobacterium tuberculosis H37Rv after 5 days by MABA. The series is classed as functional. Particulars: 120 h.

SMILES strings stand for the structures. Converted amounts (≈) assume the structure as drawn.

The MIC is the lowest concentration that inhibits growth of the organism. Compound `CC1(C)CCc2c(c3ccccc3c3nc(-c4c[nH]c5ccccc45)[nH]c23)O1` displayed an MIC in series [1] of 1.56 to 6.25 µg/mL (≈ 4.25 to 17 µM).

Usually IC50 stands for the concentration at which inhibition is half-maximal. In the case of `O=C(Cn1c(-c2cscn2)nc2ccccc21)Nc1ccc(F)cc1`, the IC50 in series [2] was in the range of 3000 to 10000 nM.

Take `N#Cc1ccc(NC(=O)Cn2c(-c3cscn3)nc3ccccc32)cc1`: the IC50 in [2] was 3000 to 10000 nM.

In the case of `O=C(Cn1c(-c2cscn2)nc2ccccc21)Nc1ccc(Br)cc1`, the IC50 in series [2] is 3000 nM.

In series [2], `O=C(Cn1c(-c2cscn2)nc2ccccc21)Nc1cccc(Cl)c1` registered an IC50 of 3000 to 10000 nM.

`COc1ccc(-c2cn(Cc3ccc(Cl)cc3Cl)cc2C(c2ccccc2)n2ccnc2)cc1` (centres undefined) returned an MIC in series [1] of 1 µg/mL (≈ 2.05 µM).

With `O=C(Cn1c(-c2cscn2)nc2ccccc21)Nc1ccc(Cl)cc1`, the IC50 in series [2] was in the range of 3000 to 10000 nM.

Take `Clc1ccc(Cn2cc(-c3ccccc3)c(C(c3ccccc3)n3ccnc3)c2)c(Cl)c1` (centres undefined): in series [1], the MIC lay within 1 to 16 µg/mL (≈ 2.18 to 34.9 µM).

Turning to `CCc1nc2ccc(C)cc2n1CCCCOc1ccccc1`, the MIC in series [3] lay within 0.056 to 2.6 µM (≈ 0.0173 to 0.802 µg/mL).

Take `CCc1nc2ccc(C)cc2n1CCCCNc1ccccc1`: in series [3], the MIC lay in the range of 0.056 to 2.6 µM (≈ 0.0172 to 0.799 µg/mL).

Take `COc1cccc(-c2nc3ccc(-c4ccc5nc(-c6cccc(OC)c6)[nH]c5c4)cc3[nH]2)c1`: the MIC in [4] and in series [5] was 0.5 to 16 µg/mL (≈ 1.12 to 35.8 µM) in each case.

In [3], `CCc1nc2ccc(C)cc2n1CCCCNc1ccc(OCc2ccccc2)cc1` yielded an MIC of 0.056 to 2.6 µM (≈ 0.0232 to 1.08 µg/mL).

Consider `COc1ccc2c(c1)cc(-c1nc(-c3ccccc3)c(-c3ccccc3)n1-c1ccc(C)cc1)c1nnnn12`, for which the inhibition of growth at 100 µg/mL in series [6] was 17 to 99%.

On to `Cc1ccccc1NC(=O)Cn1c(-c2cscn2)nc2ccccc21`, for which the IC50 in [2] was in the range of 3000 to 10000 nM.

The compound `CCCSc1nnc(-c2ncc([N+](=O)[O-])[nH]2)s1` yielded an MIC in series [7] of 3.13 to 6.25 µg/mL (≈ 11.5 to 23 µM). Moreover, in series [8], the selectivity ratio was 0.3 to 0.6.

`COc1ccc(-n2c(-c3cc4cc(Cl)ccc4n4nnnc34)nc(-c3ccccc3)c2-c2ccccc2)cc1`: the inhibition of growth at 100 µg/mL in [6] fell in the range of 17 to 99%.

`Clc1ccc2c(c1)cc(-c1nc(-c3ccccc3)c(-c3ccccc3)n1-c1ccccc1)c1nnnn12`: the inhibition of growth at 100 µg/mL in [6] fell in the range of 17 to 99%.

With `CCCS(=O)(=O)c1nnc(-c2ncc([N+](=O)[O-])[nH]2)s1`, the MIC in [7] was greater than 6.25 µg/mL. Besides, in [8], the selectivity ratio was in the range of 0.3 to 0.6.

Turning to `Cc1ccc(Oc2cc3[nH]c(Cn4ccnc4)nc3cc2F)cc1`, the MIC in [1] was in the range of 12.5 to 100 µg/mL (≈ 38.8 to 310 µM).

With `c1ccc(-c2nc(-c3cc4ccccc4n4nnnc34)n(-c3ccccc3)c2-c2ccccc2)cc1`, the inhibition of growth at 100 µg/mL in series [6] lay within 17 to 99%.

A word on the MIC99: it is an inhibitory concentration at the 99% level, which refers to growth in some studies and to a panel of isolates in others. On to `Cc1ccc(-n2c(-c3cc4cc(Cl)ccc4n4nnnc34)nc(-c3ccccc3)c2-c2ccccc2)cc1`, for which the MIC99 in series [1] is 25 µg/mL (≈ 48.7 µM). For the same compound, the inhibition of growth at 100 µg/mL in series [6] was in the range of 17 to 99%.

For the compound `Cc1ccc(-n2c(-c3cc4ccccc4n4nnnc34)nc(-c3ccccc3)c2-c2ccccc2)cc1`, the inhibition of growth at 100 µg/mL in series [6] was 17 to 99%.

Consider `CCc1nc2ccc(C)cc2n1CCCCNc1ccc(OC)cc1`, for which the MIC in series [3] was 0.056 to 2.6 µM (≈ 0.0189 to 0.877 µg/mL).

With `CCc1nc2ccc(C)cc2n1CCCCSc1ccc(Cl)cc1`, the MIC in series [3] lay within 0.056 to 2.6 µM (≈ 0.0201 to 0.933 µg/mL).

In [3], `CCc1nc2ccc(C)cc2n1CCCCNc1cccc(C(F)(F)F)c1` yielded a minimal inhibitory concentration (MIC) of 0.056 to 2.6 µM (≈ 0.021 to 0.976 µg/mL).

In series [7], `CC[S+]([O-])c1nnc(-c2ncc([N+](=O)[O-])[nH]2)s1` (centres undefined) displayed an MIC of 1.56 µg/mL (≈ 5.71 µM). Besides, in series [8], the selectivity ratio lay in the range of 0.3 to 0.6.

`Fc1ccc(-c2cn(Cc3ccc(Cl)cc3Cl)cc2C(c2ccccc2)n2ccnc2)cc1` (centres undefined) yielded an MIC in [1] of 1 µg/mL (≈ 2.1 µM).

Compound `CCSc1nnc(-c2ncc([N+](=O)[O-])[nH]2)s1` yielded an MIC in series [7] of 3.13 to 6.25 µg/mL (≈ 12.2 to 24.3 µM). Further, the selectivity ratio in series [8] is 0.3 to 0.6.

Consider `COc1ccc(-n2c(-c3cc4cc(OC)ccc4n4nnnc34)nc(-c3ccccc3)c2-c2ccccc2)cc1`, for which the inhibition of growth at 100 µg/mL in [6] lay within 17 to 99%.

In [1], `Fc1cc2nc(Cn3ccnc3)[nH]c2cc1Oc1ccccc1` displayed an MIC of 12.5 to 100 µg/mL (≈ 40.5 to 324 µM).

As to `O=C(Cn1c(-c2cscn2)nc2ccccc21)Nc1ccc(I)cc1`, the IC50 in series [2] was in the range of 3000 to 10000 nM.

With `Fc1cc2nc(Cn3ccnc3)[nH]c2cc1-n1ccnc1`, the MIC in series [1] lay within 12.5 to 100 µg/mL (≈ 44.3 to 354 µM).

Consider `Cc1ccc2c(c1)cc(-c1nc(-c3ccccc3)c(-c3ccccc3)n1-c1ccccc1)c1nnnn12`, for which the inhibition of growth at 100 µg/mL in [6] is 17 to 99%.

Consider `COc1ccc(-n2c(-c3cc4ccccc4n4nnnc34)nc(-c3ccccc3)c2-c2ccccc2)cc1`, for which the inhibition of growth at 100 µg/mL in series [6] is 17 to 99%.

For the compound `CCc1nc2ccc(C)cc2n1CCCNc1ccc(C)cc1`, the MIC in series [3] was 0.056 to 0.88 µM (≈ 0.0172 to 0.271 µg/mL).

Take `Cc1ccc(-n2c(-c3cc4cc(C)ccc4n4nnnc34)nc(-c3ccccc3)c2-c2ccccc2)cc1`: the inhibition of growth at 100 µg/mL in [6] is 17 to 99%.

`CS(=O)(=O)c1nnc(-c2ncc([N+](=O)[O-])[nH]2)s1`: the MIC in series [7] is greater than 6.25 µg/mL. Further, the selectivity ratio in series [8] was 0.3 to 0.6.

Compound `COc1ccc(NC(=O)Cn2c(-c3cscn3)nc3ccccc32)c(OC)c1` gave a half-maximal inhibitory concentration (IC50) in series [2] of 3000 to 10000 nM.

In the case of `C[S+]([O-])c1nnc(-c2ncc([N+](=O)[O-])[nH]2)s1` (centres undefined), 1.56 µg/mL (≈ 6.02 µM) was the least that counted as inhibitory in [7] (MIC). The selectivity ratio in series [8] was 0.3 to 0.6.

As to `CCc1nc2ccc(C)cc2n1CCCNc1ccc(C)cc1C`, the MIC in series [3] fell in the range of 0.056 to 0.88 µM (≈ 0.018 to 0.283 µg/mL).

`CCc1nc2ccc(C)cc2n1CCCNc1ccc(OC)cc1` came in with an MIC in series [3] of 0.056 to 0.88 µM (≈ 0.0181 to 0.285 µg/mL).

With `COc1ccc(-n2c(-c3cc4cc(C)ccc4n4nnnc34)nc(-c3ccccc3)c2-c2ccccc2)cc1`, the inhibition of growth at 100 µg/mL in series [6] was 17 to 99%.

Compound `O=C(Cn1c(-c2cscn2)nc2ccccc21)Nc1ccc([N+](=O)[O-])cc1` returned an IC50 in [2] of 3000 to 10000 nM.

As for `Fc1cc2nc(Cn3ccnc3)[nH]c2cc1Oc1ccc(Cl)cc1`, the MIC in [1] lay within 12.5 to 100 µg/mL (≈ 36.5 to 292 µM).

Regarding `CCc1nc2ccc(C)cc2n1CCCNc1ccccc1`, the MIC in series [3] is 0.056 µM (≈ 0.0164 µg/mL).

`CCCOc1cccc(NC(=O)Cn2c(-c3cscn3)nc3ccccc32)c1` came in with an IC50 in series [2] of 3000 to 10000 nM.

Compound `CCc1nc2ccc(C)cc2n1CCCSc1ccc(OC)cc1` showed an MIC in series [3] of 0.056 to 0.88 µM (≈ 0.0191 to 0.3 µg/mL).

As for `CCc1nc2ccc(C)cc2n1CCCCSc1ccccc1`, in series [3], the minimum inhibitory concentration (MIC) was 0.056 to 2.6 µM (≈ 0.0182 to 0.844 µg/mL).

In turn, `CCC[S+]([O-])c1nnc(-c2ncc([N+](=O)[O-])[nH]2)s1` (centres undefined) registered an MIC in series [7] of 1.56 µg/mL (≈ 5.43 µM). Further, the selectivity ratio in series [8] was in the range of 0.3 to 0.6.

In series [7], `CSc1nnc(-c2ncc([N+](=O)[O-])[nH]2)s1` gave a minimum inhibitory concentration (MIC) of 3.13 to 6.25 µg/mL (≈ 12.9 to 25.7 µM).

With `COc1ccc2c(c1)cc(-c1nc(-c3ccccc3)c(-c3ccccc3)n1-c1ccccc1)c1nnnn12`, in series [6], the inhibition of growth at 100 µg/mL lay within 17 to 99%.

In [3], `CCc1nc2ccc(C)cc2n1CCCCNc1cccc(Cl)c1` displayed an MIC of 0.056 to 2.6 µM (≈ 0.0191 to 0.889 µg/mL).

Take `O=C(Cn1c(-c2cscn2)nc2ccccc21)Nc1ccccc1`: the IC50 in series [2] is 3000 to 10000 nM.

For `CCc1nc2ccc(C)cc2n1CCCCSc1ccc(OC)cc1`, the MIC in [3] lay in the range of 0.056 to 2.6 µM (≈ 0.0199 to 0.922 µg/mL).

As for `Fc1cc2nc(Cn3ccnc3)[nH]c2cc1Cl`, the minimum inhibitory concentration (MIC) in [1] fell in the range of 12.5 to 100 µg/mL (≈ 49.9 to 399 µM).

As to `CCOc1ccc(-c2nc3ccc(-c4ccc5nc(-c6ccc(OCC)cc6)[nH]c5c4)cc3[nH]2)cc1`, the MIC in series [4] and in series [5] was 0.5 to 16 µg/mL (≈ 1.05 to 33.7 µM) throughout.

In the case of `Nc1ccc(-c2nc3cc(-c4ccc5[nH]c(-c6ccc(N)cc6)nc5c4)ccc3[nH]2)cc1`, the minimal inhibitory concentration (MIC) in [4] and in [5] was 0.5 to 16 µg/mL (≈ 1.2 to 38.4 µM) in each case.

In turn, `O=C(O)c1cn(C2CC2)c2cc(N3CCNCC3)c(F)cc2c1=O` [CIPROFLOXACIN] returned an MIC in series [9] of 3.12 µg/mL (≈ 9.43 µM).

`NNC(=O)c1ccncc1` [ISONIAZID]: the MIC in series [1] amounted to 0.2 µg/mL (≈ 1.46 µM); in series [9] it was 6.25 µg/mL (≈ 45.6 µM).

In series [9], `NC(=O)c1cnccn1` [PYRAZINAMIDE] came in with an MIC of 3.12 µg/mL (≈ 25.4 µM).

As to `CN[C@@H]1[C@H](O[C@H]2[C@H](O[C@H]3[C@H](O)[C@@H](O)[C@H](N=C(N)N)[C@@H](O)[C@@H]3N=C(N)N)O[C@@H](C)[C@]2(O)C=O)O[C@@H](CO)[C@H](O)[C@H]1O` [STREPTOMYCIN], the MIC in [1] was determined as 0.7 µg/mL (≈ 1.2 µM); in series [9], 6.25 µg/mL (≈ 10.7 µM).
